Assay: Transformation into the amino form after incubation in mouse plasma at 37° C. (Experiment 1)
Format: in vitro ADME
Details: 10 mg equivalent/ml
Method: The lyophilized 7β-[2(Z)-ethoxyimino-2-(5-phosphonoamino-1,2,4-thiadiazol-3-yl)acetamido]-3-[4-(1-methyl-4-pyridinio)-2-thiazolylthio]-3-cephem-4-carboxylate obtained in Working Example 6, was dissolved in mouse plasma to prepare 10 mg equivalent/ml solution. After incubation at 37° C., the transformation rate into 7β-[2(Z)-ethoxyimino-2-(5-amino-1,2,4-thiadiazol-3-yl)acetamido]-3-[4-(1-methyl-4-pyridinio)-2-thiazolylthio]-3-cephem-4-carboxylate (amino form) was measured. The transformation rates in 30 minutes and 1 hour were as follows: […]

CCO/N=C(\C(=O)N[C@@H]1C(=O)N2C(C(=O)[O-])=C(Sc3nc(-c4cc[n+](C)cc4)cs3)CS[C@H]12)c1nsc(NP(=O)(O)O)n1 [Working Example 6, 7β-[2(Z)-Ethoxyimino-2-(5-phosphonoamino-1,2,4-thiadiazol-3-yl)acetamido]-3-[4-(1-methyl-4-pyridinio)-2-thiazolylthio]-3-cephem-4-carboxylate]
transformation rate into amino form (30 minutes): 35% | transformation rate into amino form (1 hour): 62%

— US6417175B1, “Phosphonocephem derivatives, process for the preparation of the same, and use thereof” (Takeda Chemical Industries, Ltd., priority 1997, dated 2002)
